Data as given in the supplement of paper PMC13380429.
± gives the standard deviation of the averaged measurements.

Key:
Conditions in all cases: 72 h
U2OS [1] = experiment: cell viability relative to DMSO; higher = less toxic
Calu-3 [2] = experiment: as above
Caco-2 [3] = experiment: as above
Vero E6 [4] = experiment: as above
HepG2 [5] = experiment: as above
U2OS [6] = experiment: relative viability EC50 (midpoint between 100% and the lowest measured viability); higher = less toxic
Calu-3 [7] = experiment: as above
Caco-2 [8] = experiment: as above
Vero E6 [9] = experiment: as above
HepG2 [10] = experiment: as above
U2OS [11] = experiment: drug sensitivity score (DSS) for viability; higher = more toxic; extreme values may be limits of the assay
Calu-3 [12] = experiment: as above
Caco-2 [13] = experiment: as above
Vero E6 [14] = experiment: as above
HepG2 [15] = experiment: as above

Compound	cell viability (U2OS [1]; 1 nM)	cell viability (U2OS [1]; 10 nM)	cell viability (U2OS [1]; 100 nM)	cell viability (U2OS [1]; 1000 nM)	cell viability (U2OS [1]; 10000 nM)	cell viability (Calu-3 [2]; 1 nM)	cell viability (Calu-3 [2]; 10 nM)	cell viability (Calu-3 [2]; 100 nM)	cell viability (Calu-3 [2]; 1000 nM)	cell viability (Calu-3 [2]; 10000 nM)	cell viability (Caco-2 [3]; 1 nM)	cell viability (Caco-2 [3]; 10 nM)	cell viability (Caco-2 [3]; 100 nM)	cell viability (Caco-2 [3]; 1000 nM)	cell viability (Caco-2 [3]; 10000 nM)	cell viability (Vero E6 [4]; 1 nM)	cell viability (Vero E6 [4]; 10 nM)	cell viability (Vero E6 [4]; 100 nM)	cell viability (Vero E6 [4]; 1000 nM)	cell viability (Vero E6 [4]; 10000 nM)	cell viability (HepG2 [5]; 1 nM)	cell viability (HepG2 [5]; 10 nM)	cell viability (HepG2 [5]; 100 nM)	cell viability (HepG2 [5]; 1000 nM)	cell viability (HepG2 [5]; 10000 nM)	relative viability EC50 (U2OS [6])	relative viability EC50 (Calu-3 [7])	relative viability EC50 (Caco-2 [8])	relative viability EC50 (Vero E6 [9])	relative viability EC50 (HepG2 [10])	drug sensitivity score (U2OS [11])	drug sensitivity score (Calu-3 [12])	drug sensitivity score (Caco-2 [13])	drug sensitivity score (Vero E6 [14])	drug sensitivity score (HepG2 [15])
COc1c2ccoc2cc2oc(=O)ccc12 [bergapten]	95.4%	106%	93.2%	97.4%	102%	105%	119%	108%	103%	99%	82.4%	94.1%	94.3%	99.4%	88.3%	103%	105%	99.8%	98.4%	82%	95.7%	85.8%	90%	102%	96.3%	> 10 µM	> 10 µM	> 10 µM	> 10 µM	> 10 µM	0	0	0	0.6	0
Cc1cc(-c2cc(OC(=O)c3ccccc3)ccc2Cl)cc2nnc(Nc3ccc(OCCN4CCCC4)cc3)nc12	98.3%	99%	101%	100%	102%	102%	115%	90.9%	102%	104%	98.1%	95.6%	99%	93%	116%	98.4%	97.3%	97.2%	96.9%	112%	108%	107%	95.2%	89%	107%	> 10 µM	> 10 µM	> 10 µM	> 10 µM	> 10 µM	0	0	0	0	0
Nc1n[nH]c2nc3ccccc3nc12 [CDK1-5-inhibitor]	86.3%	95.2%	95.9%	100%	102%	98.3%	102%	97.1%	86%	90.6%	101%	105%	97.8%	96.2%	104%	99.8%	96.1%	100%	100%	97.4%	102%	98.6%	107%	101%	104%	> 10 µM	> 10 µM	> 10 µM	> 10 µM	> 10 µM	0	1.4	0	0	0
O=C(NCCN1CCOCC1)c1ccc(Cl)cc1 [moclobemide]	92.6%	98.9%	96.3%	103%	106%	93.5%	103%	92.9%	103%	106%	88.4%	99.2%	90.7%	88.9%	94.1%	98.5%	93.3%	98.5%	95.9%	110%	99.4%	94.4%	108%	98.3%	103%	> 10 µM	> 10 µM	> 10 µM	> 10 µM	> 10 µM	0	0	0	0	0
CN(C)CCCSC(=N)N [dimaprit]	98.5%	103%	95.1%	96.2%	96.8%	109%	103%	109%	99.1%	96.7%	99%	102%	93.9%	96.3%	97.4%	99.9%	98.8%	103%	100%	96.2%	99%	106%	99.1%	104%	93.2%	> 10 µM	> 10 µM	> 10 µM	> 10 µM	> 10 µM	0	0	0	0	0
CN1CCCN=C1COC(=O)C(O)(c1ccccc1)C1CCCCC1 (stereo not given) [oxyphencyclimine]	97.2%	101%	94.6%	97.3%	93%	93%	102%	102%	98.8%	94.7%	99.8%	99.3%	100%	106%	102%	103%	104%	100%	91.7%	91.8%	93.6%	102%	105%	91.3%	92.2%	> 10 µM	> 10 µM	> 10 µM	> 10 µM	> 10 µM	0	0	0	0	0
CCN(CC)CCOC(=O)C(c1ccccc1)C1CCCCC1 (stereo not given) [drofenine]	102%	99.1%	100%	98.2%	102%	107%	110%	109%	97.3%	98%	102%	96%	99.3%	88.2%	111%	103%	110%	100%	107%	85.8%	93.7%	87.5%	86.6%	86.9%	87.8%	> 10 µM	> 10 µM	> 10 µM	> 10 µM	> 10 µM	0	0	0	0.1	2.6
OC[C@H]1NC[C@@H](O)[C@@H](O)[C@@H]1O [1-deoxymannojirimycin]	96.8%	102%	95.8%	100%	108%	106%	96.8%	97%	95.4%	90.8%	95.3%	96.8%	98.2%	97%	104%	99.1%	93%	98.2%	96.8%	107%	109%	96.2%	94.5%	93.1%	97.7%	> 10 µM	> 10 µM	> 10 µM	> 10 µM	> 10 µM	0	0	0	0	0
C[C@]1(COc2ccc(N3CCC(Oc4ccc(OC(F)(F)F)cc4)CC3)cc2)Cn2cc([N+](=O)[O-])nc2O1 [delamanid]	105%	98.2%	103%	98.3%	102%	93%	98%	103%	91.9%	102%	103%	96.9%	103%	90.5%	94.3%	104%	102%	101%	102%	99.8%	96.5%	97.8%	92.6%	99.5%	104%	> 10 µM	> 10 µM	> 10 µM	> 10 µM	> 10 µM	0	0	0	0	0
CCCC(C(=O)OCCN(CC)CC)(c1ccccc1)c1ccccc1 [proadifen]	93%	97.9%	99.1%	102%	98.5%	99.3%	93.1%	101%	105%	99.6%	89.8%	101%	102%	101%	87.9%	97.9%	96%	98.4%	97.3%	99.8%	101%	100%	92.6%	95%	88.1%	> 10 µM	> 10 µM	> 10 µM	> 10 µM	> 10 µM	0	0	0	0	0
Cc1cc(NCCO)nc(-c2ccc(Br)cc2)n1	99.5%	100%	99.7%	95.8%	99.7%	105%	87.6%	99.5%	109%	98.1%	95.3%	91.8%	104%	93.1%	97%	102%	101%	93.1%	93.9%	84.6%	97.4%	98.9%	86.9%	95.8%	94.3%	> 10 µM	> 10 µM	> 10 µM	> 10 µM	> 10 µM	0	0	0	0.3	0
CCCCCCCCCCCCCCCCCC(=O)OCC(O)CO (stereo not given) [monostearin]	97.8%	96.5%	92%	104%	93.8%	103%	101%	83.9%	105%	94.8%	100%	96.9%	89.6%	100%	96.9%	99.9%	106%	96.3%	99.5%	100%	104%	103%	97.1%	96.5%	102%	> 10 µM	> 10 µM	> 10 µM	> 10 µM	> 10 µM	0	0	0	0	0
CO[C@H]1/C=C/O[C@@]2(C)Oc3c(C)c(O)c4c(O)c(cc(O)c4c3C2=O)NC(=O)/C(C)=C\C=C\[C@H](C)[C@H](O)[C@@H](C)[C@@H](O)[C@@H](C)[C@H](OC(C)=O)[C@@H]1C [rifamycin-sv]	101 ± 2.6%	102 ± 3.1%	100%	105 ± 2.8%	100 ± 1.8%	89.1%	90.3%	106%	96.5%	97%	102.6 ± 0.71%	101 ± 1.5%	103 ± 2.9%	103 ± 4.1%	95.8 ± 5.3%	99.5 ± 3.5%	96.8 ± 1.3%	99.4 ± 2.4%	97.2 ± 2.3%	99.3 ± 4.4%	99.2 ± 5.4%	92.7 ± 7.1%	110 ± 4%	88 ± 5.7%	92.2 ± 7.7%	> 10 µM	> 10 µM	> 10 µM	> 10 µM	> 10 µM	0	0	0	0	0.25 ± 0.35
OC[C@H]1O[C@@H](Oc2cc(O)cc(/C=C/c3ccc(O)cc3)c2)[C@H](O)[C@@H](O)[C@@H]1O [polydatin]	101%	103%	102%	99.4%	98.2%	100%	101%	96.9%	103%	102%	99.4%	97.2%	97.4%	101%	96.3%	101%	104%	95.7%	100%	99%	98.1%	93.9%	93.2%	96.6%	96.8%	> 10 µM	> 10 µM	> 10 µM	> 10 µM	> 10 µM	0	0	0	0	0
